Measurements from the NIST ThermoML archive (doi:10.1021/acs.jced.7b00654).

Assay: xn = mol fraction of the nth substance listed
Details: 96.7 kPa, Liquid, Vibrating tube method

c1ccncc1 [pyridine] + CCCCn1cc[n+](C)c1.[Cl-]
mass density [kg/m3]
Details | x2 = 0 | x2 = 0.163 | x2 = 0.313 | x2 = 0.404 | x2 = 0.514 | x2 = 0.644 | x2 = 0.803 | x2 = 0.895
303.15 K | 973.09 | 1013.2 | 1035.67 | 1045.6 | 1054.49 | 1063.34 | 1072.41 | 1075.89
308.15 K | 968.06 | 1009.09 | 1032.05 | 1042.19 | 1051.2 | 1060.26 | 1069.51 | 1073.02
313.15 K | 963.02 | 1004.97 | 1028.43 | 1038.78 | 1047.94 | 1057.18 | 1066.59 | 1070.16
318.15 K | 957.97 | 1000.85 | 1024.82 | 1035.39 | 1044.72 | 1054.11 | 1063.66 | 1067.3
323.15 K | 952.9 | 996.73 | 1021.21 | 1032.01 | 1041.52 | 1051.04 | 1060.72 | 1064.45
328.15 K | 947.82 | 992.6 | 1017.6 | 1028.63 | 1038.33 | 1047.99 | 1057.81 | 1061.65
333.15 K | 942.72 | 988.47 | 1014 | 1025.25 | 1035.14 | 1044.96 | 1054.92 | 1058.86
338.15 K | 937.6 | 984.34 | 1010.4 | 1021.89 | 1031.93 | 1041.94 | 1052.08 | 1056.09
343.15 K | 932.46 | 980.21 | 1006.81 | 1018.53 | 1028.66 | 1038.93 | 1049.29 | 1053.31
348.15 K | 927.3 | 976.06 | 1003.22 | 1015.17 | 1025.27 | 1035.92 | 1046.57 | 1050.53
353.15 K | 922.12 | 971.91 | 999.63 | 1011.79 | 1021.81 | 1032.89 | 1044.02 | 1047.77
